Experimental data: patent publication US5440016A, “Peptides of the formula (KFmoc) ZZZ and their uses” (priority 1993, dated 1995)
≈ marks a conversion by molar mass, not a printed value. Square brackets hold non-standard residues; d marks the D form. Peptide text beside a SMILES is read from it. * marks the point of attachment. Fmoc = O=C(OCC1c2ccccc2-c2ccccc21)*

Experiments:
[1] = test system: Staphylococcus aureus ATCC 29213; details: Tables 6-9
[2] = test system: Human red blood cells (RBCs); assay: Hemolytic activity; type: cell-based; details: Tables 18-21
[3] = test system: Streptococcus sanguis ATCC 10556; details: Tables 10-13
Experimental: Streptococcus sanguis ATCC 10556 (Gram-positive (+) bacteria present in tooth crevices) was grown overnight at 37° C. in Brain Heart Infusion (BHI) broth. This culture was reinoculated and incubated at 37° C. to reach the exponential phase of bacteria growth, i.e., a final bacterial suspension containing 10^5 to 5×10^5 colony-forming units (CFU)/ml. The concentration of cells was established by plating 100 μl of different dilutions of the culture solution (e.g., 10^-2, 10^-4) and 10^-4) onto solid agar plates. Following an overnight incubation at 37° C., the CFU thus formed were counted on each agar plate. In 96-well tissue culture plates, as control blanks, eight wells per plate contained only medium, while as a positive growth control, eight other wells contained medium plus cells. […] The plates were incubated overnight at 37° C., and the optical density (OD) determined at 620 nm after 20 to 24 hours incubation.

[4] = test system: Candida albicans ATCC 10231; details: Tables 14-17
[5] = test system: Escherichia coli ATCC 25922; details: Tables 2-5; concentration necessary to inhibit 50% growth
Experimental: Escherichia coli ATCC 25922 and P. aeruginosa ATCC 27853 were used as Gram-negative (-) and Staphylococcus aureus ATCC 29213 as Gram-positive (+) bacteria. Bacteria were grown overnight at 37° C. in Mueller-Hinton (MH) broth. This culture was reinoculated and incubated at 37° C. to reach the exponential phase of bacteria growth, i.e., a final bacterial suspension containing 10^5 to 5×10^5 colony-forming units (CFU)/ml. The concentration of cells was established by plating 100 μl of different dilutions of the culture solution (e.g., 10^-2, 10^-3 and 10^-4) onto solid agar plates.
Following an overnight incubation at 37° C., the CFU thus formed were counted on each agar plate. In 96-well tissue culture plates, as control blanks, eight wells per plate contained only medium, while as a positive growth control, eight other wells contained medium plus cells.
The plates were incubated overnight at 37° C., and the optical density (OD) determined at 620 nm after different times of incubation.

| Compound | IC50 against S. aureus [1] [µg/mL] | HD50 (concentration necessary to lyse 50% of the cells) [2] [µg/mL] | IC50 against S. sanguis [3] [µg/mL] | IC50 against C. albicans [4] [µg/mL] | IC50 against E. coli [5] [µg/mL] |
| --- | --- | --- | --- | --- | --- |
| CC(C)[C@@H](NC(=O)[C@H](CCCCN)NC(=O)[C@H](Cc1c[nH]c2ccccc12)NC(=O)[C@H](CCCCN)NC(=O)OCC1c2ccccc2-c2ccccc21)C(N)=O [(KFmoc)WKv-NH2] (Fmoc-KWK[dV]-NH2) | 9 (≈ 11.5 µM) | 181 | 10 (≈ 12.8 µM) | 187 (≈ 239 µM) | 54 (≈ 69.1 µM) |
| NCCCC[C@H](NC(=O)OCC1c2ccccc2-c2ccccc21)C(=O)N[C@@H](Cc1c[nH]c2ccccc12)C(=O)N[C@@H](CCCCN)C(=O)N[C@H](Cc1c[nH]c2ccccc12)C(N)=O [(KFmoc)WKw-NH2] (Fmoc-KWK[dW]-NH2) | 4 (≈ 4.61 µM) | 32 | 4 (≈ 4.61 µM) | 116 (≈ 134 µM) | 15 (≈ 17.3 µM) |
| NCCCC[C@H](NC(=O)OCC1c2ccccc2-c2ccccc21)C(=O)N[C@@H](Cc1c[nH]c2ccccc12)C(=O)N[C@@H](CCCCN)C(=O)N[C@H](Cc1ccc(O)cc1)C(N)=O [(KFmoc)WKy-NH2] (Fmoc-KWK[dY]-NH2) | 7 (≈ 8.28 µM) | 368 | 8 (≈ 9.47 µM) | 144 (≈ 170 µM) | 39 (≈ 46.2 µM) |
| C[C@@H](NC(=O)[C@H](Cc1ccc(O)cc1)NC(=O)[C@H](Cc1c[nH]c2ccccc12)NC(=O)[C@H](CCCCN)NC(=O)OCC1c2ccccc2-c2ccccc21)C(N)=O [(KFmoc)WYa-NH2] (Fmoc-KWY[dA]-NH2) | 5 (≈ 6.35 µM) | 74 | 5 (≈ 6.35 µM) | 249 (≈ 316 µM) | 87 (≈ 110 µM) |
| NCCCC[C@H](NC(=O)OCC1c2ccccc2-c2ccccc21)C(=O)N[C@@H](Cc1c[nH]c2ccccc12)C(=O)N[C@@H](Cc1ccc(O)cc1)C(=O)N[C@H](Cc1c[nH]cn1)C(N)=O [(KFmoc)WYh-NH2] (Fmoc-KWY[dH]-NH2) | 7 (≈ 8.2 µM) | 73 | 8 (≈ 9.37 µM) | 192 (≈ 225 µM) | 40 (≈ 46.8 µM) |
| NCCCC[C@H](NC(=O)OCC1c2ccccc2-c2ccccc21)C(=O)N[C@@H](Cc1c[nH]c2ccccc12)C(=O)N[C@@H](Cc1ccc(O)cc1)C(=O)N[C@H](CCCCN)C(N)=O [(KFmoc)WYk-NH2] (Fmoc-KWY[dK]-NH2) | 5 (≈ 5.92 µM) | 62 | 5 (≈ 5.92 µM) | 121 (≈ 143 µM) | 18 (≈ 21.3 µM) |
| NCCCC[C@H](NC(=O)OCC1c2ccccc2-c2ccccc21)C(=O)N[C@@H](Cc1c[nH]c2ccccc12)C(=O)N[C@@H](Cc1ccc(O)cc1)C(=O)N1CCC[C@@H]1C(N)=O [(KFmoc)WYp-NH2] (Fmoc-KWY[dP]-NH2) | 5 (≈ 6.14 µM) | 76 | 5 (≈ 6.14 µM) | 165 (≈ 203 µM) | 84 (≈ 103 µM) |
| N=C(N)NCCC[C@@H](NC(=O)[C@H](Cc1ccc(O)cc1)NC(=O)[C@H](Cc1c[nH]c2ccccc12)NC(=O)[C@H](CCCCN)NC(=O)OCC1c2ccccc2-c2ccccc21)C(N)=O [(KFmoc)WYr-NH2] (Fmoc-KWY[dR]-NH2) | 4 (≈ 4.58 µM) | 31 | 4 (≈ 4.58 µM) | 109 (≈ 125 µM) | 16 (≈ 18.3 µM) |
| NCCCC[C@H](NC(=O)OCC1c2ccccc2-c2ccccc21)C(=O)N[C@@H](Cc1c[nH]c2ccccc12)C(=O)N[C@@H](Cc1ccc(O)cc1)C(=O)N[C@H](CO)C(N)=O [(KFmoc)WYs-NH2] (Fmoc-KWY[dS]-NH2) | 5 (≈ 6.22 µM) | 27 | 5 (≈ 6.22 µM) | 353 (≈ 439 µM) | 106 (≈ 132 µM) |
| C[C@H](O)[C@@H](NC(=O)[C@H](Cc1ccc(O)cc1)NC(=O)[C@H](Cc1c[nH]c2ccccc12)NC(=O)[C@H](CCCCN)NC(=O)OCC1c2ccccc2-c2ccccc21)C(N)=O [(KFmoc)WYt-NH2] (Fmoc-KWY[dT]-NH2) | 9 (≈ 11 µM) | 37 | 8 (≈ 9.78 µM) | 161 (≈ 197 µM) | 81 (≈ 99 µM) |
| CC(C)C[C@@H](NC(=O)[C@@H](Cc1ccccc1)NC(=O)[C@H](Cc1c[nH]c2ccccc12)NC(=O)[C@H](CCCCN)NC(=O)OCC1c2ccccc2-c2ccccc21)C(N)=O [(KFmoc)Wfl-NH2] (Fmoc-KW[dF][dL]-NH2) | 2 (≈ 2.46 µM) | 197 | 2 (≈ 2.46 µM) | 127 (≈ 156 µM) | 28 (≈ 34.4 µM) |
| NCCCC[C@H](NC(=O)OCC1c2ccccc2-c2ccccc21)C(=O)N[C@@H](Cc1c[nH]c2ccccc12)C(=O)N[C@H](Cc1ccccc1)C(=O)N1CCC[C@@H]1C(N)=O [(KFmoc)Wfp-NH2] (Fmoc-KW[dF][dP]-NH2) | 7 (≈ 8.77 µM) | 65 | 6 (≈ 7.52 µM) | 347 (≈ 435 µM) | 30 (≈ 37.6 µM) |
| N=C(N)NCCC[C@@H](NC(=O)[C@@H](Cc1ccccc1)NC(=O)[C@H](Cc1c[nH]c2ccccc12)NC(=O)[C@H](CCCCN)NC(=O)OCC1c2ccccc2-c2ccccc21)C(N)=O [(KFmoc)Wfr-NH2] (Fmoc-KW[dF][dR]-NH2) | 2 (≈ 2.33 µM) | 42 | 2 (≈ 2.33 µM) | 42 (≈ 49 µM) | 15 (≈ 17.5 µM) |
